# Source: ChEMBL document CHEMBL3991601, “The target landscape of clinical kinase drugs” (Science, 2017)
# Calls of active or inactive are those of the source.
# Columns and labels:
# [1] = target: T1, Mitogen-activated protein kinase kinase kinase 2 (Homo sapiens, UniProt Q9Y2U5)
# T1 sequence (Q9Y2U5 whole entry): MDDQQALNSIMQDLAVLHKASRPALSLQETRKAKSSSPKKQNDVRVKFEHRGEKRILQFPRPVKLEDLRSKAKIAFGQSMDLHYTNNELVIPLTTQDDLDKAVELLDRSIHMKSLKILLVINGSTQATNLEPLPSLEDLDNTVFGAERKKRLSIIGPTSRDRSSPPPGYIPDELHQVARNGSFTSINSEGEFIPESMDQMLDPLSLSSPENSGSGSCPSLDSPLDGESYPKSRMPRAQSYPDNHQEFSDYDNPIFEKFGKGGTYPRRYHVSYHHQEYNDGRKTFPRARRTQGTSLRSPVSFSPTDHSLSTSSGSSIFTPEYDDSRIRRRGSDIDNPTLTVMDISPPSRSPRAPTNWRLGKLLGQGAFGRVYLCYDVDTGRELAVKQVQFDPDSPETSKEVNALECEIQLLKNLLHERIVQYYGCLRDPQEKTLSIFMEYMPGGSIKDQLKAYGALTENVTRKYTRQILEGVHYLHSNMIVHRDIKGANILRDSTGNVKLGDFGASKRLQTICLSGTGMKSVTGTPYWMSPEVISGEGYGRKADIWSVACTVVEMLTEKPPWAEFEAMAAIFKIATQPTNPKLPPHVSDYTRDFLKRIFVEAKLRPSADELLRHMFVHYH
# [2] = target: T2, Serine/threonine-protein kinase STK11 (Homo sapiens, UniProt Q15831)
# T2 sequence (Q15831 whole entry): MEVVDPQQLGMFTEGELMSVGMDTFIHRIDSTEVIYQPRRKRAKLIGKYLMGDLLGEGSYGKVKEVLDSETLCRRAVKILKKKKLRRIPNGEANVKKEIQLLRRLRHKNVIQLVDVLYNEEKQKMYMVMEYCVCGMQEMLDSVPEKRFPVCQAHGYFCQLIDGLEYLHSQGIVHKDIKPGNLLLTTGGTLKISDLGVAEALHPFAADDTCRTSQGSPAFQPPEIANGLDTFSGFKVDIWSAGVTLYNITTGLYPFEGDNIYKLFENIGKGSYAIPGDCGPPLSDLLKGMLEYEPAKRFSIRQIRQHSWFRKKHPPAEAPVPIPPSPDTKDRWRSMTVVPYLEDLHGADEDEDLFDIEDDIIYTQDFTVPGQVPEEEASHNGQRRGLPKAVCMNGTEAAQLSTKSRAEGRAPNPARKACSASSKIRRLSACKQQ
# Activin receptor type-1 = target: T3, Activin receptor type-1 (Homo sapiens, UniProt Q04771)
# T3 sequence (Q04771 whole entry): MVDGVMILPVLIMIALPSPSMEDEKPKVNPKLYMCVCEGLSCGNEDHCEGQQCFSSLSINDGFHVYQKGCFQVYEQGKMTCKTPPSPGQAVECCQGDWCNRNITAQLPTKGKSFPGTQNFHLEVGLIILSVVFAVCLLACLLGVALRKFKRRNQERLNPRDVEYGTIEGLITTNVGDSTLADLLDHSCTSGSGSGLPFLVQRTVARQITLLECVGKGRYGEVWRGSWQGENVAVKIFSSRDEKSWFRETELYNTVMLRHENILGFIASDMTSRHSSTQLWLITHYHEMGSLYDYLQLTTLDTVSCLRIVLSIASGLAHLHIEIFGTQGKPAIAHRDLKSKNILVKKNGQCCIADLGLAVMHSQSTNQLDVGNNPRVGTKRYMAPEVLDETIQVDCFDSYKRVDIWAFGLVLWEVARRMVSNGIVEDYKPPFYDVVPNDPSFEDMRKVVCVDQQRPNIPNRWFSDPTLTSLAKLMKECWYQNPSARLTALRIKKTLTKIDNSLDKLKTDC
# [3] = target: Protein-tyrosine kinase 2-beta (Homo sapiens, UniProt Q14289)
# Sequence of Protein-tyrosine kinase 2-beta (Q14289 whole entry): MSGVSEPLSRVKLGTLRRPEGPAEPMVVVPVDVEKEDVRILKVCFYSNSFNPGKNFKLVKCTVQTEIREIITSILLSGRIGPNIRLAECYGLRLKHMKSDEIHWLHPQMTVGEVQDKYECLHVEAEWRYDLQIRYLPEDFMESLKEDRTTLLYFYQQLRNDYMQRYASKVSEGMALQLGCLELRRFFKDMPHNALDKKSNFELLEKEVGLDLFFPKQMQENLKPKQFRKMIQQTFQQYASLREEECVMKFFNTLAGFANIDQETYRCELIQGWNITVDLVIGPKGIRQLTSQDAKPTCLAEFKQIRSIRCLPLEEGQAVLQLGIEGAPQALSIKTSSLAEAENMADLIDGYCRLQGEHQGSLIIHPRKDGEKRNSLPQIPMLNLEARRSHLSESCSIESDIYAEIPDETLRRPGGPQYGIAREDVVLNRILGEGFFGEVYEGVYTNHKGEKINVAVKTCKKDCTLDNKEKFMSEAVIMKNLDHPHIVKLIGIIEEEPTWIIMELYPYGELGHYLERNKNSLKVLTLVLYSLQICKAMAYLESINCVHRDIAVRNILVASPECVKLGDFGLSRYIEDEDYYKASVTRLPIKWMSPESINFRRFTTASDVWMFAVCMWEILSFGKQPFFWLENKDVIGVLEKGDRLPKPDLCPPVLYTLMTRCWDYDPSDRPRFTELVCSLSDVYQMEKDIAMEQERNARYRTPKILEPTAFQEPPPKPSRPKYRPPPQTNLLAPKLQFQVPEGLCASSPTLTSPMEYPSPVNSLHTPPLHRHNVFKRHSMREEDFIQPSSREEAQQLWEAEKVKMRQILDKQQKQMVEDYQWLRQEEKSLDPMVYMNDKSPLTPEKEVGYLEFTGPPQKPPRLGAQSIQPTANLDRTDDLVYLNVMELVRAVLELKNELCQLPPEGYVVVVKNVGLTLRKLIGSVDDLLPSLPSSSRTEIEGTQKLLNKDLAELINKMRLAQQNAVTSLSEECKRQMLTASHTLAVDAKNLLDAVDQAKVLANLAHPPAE
# [4] = target: Mitogen-activated protein kinase 3 (Homo sapiens, UniProt P27361)
# Sequence of Mitogen-activated protein kinase 3 (P27361 whole entry): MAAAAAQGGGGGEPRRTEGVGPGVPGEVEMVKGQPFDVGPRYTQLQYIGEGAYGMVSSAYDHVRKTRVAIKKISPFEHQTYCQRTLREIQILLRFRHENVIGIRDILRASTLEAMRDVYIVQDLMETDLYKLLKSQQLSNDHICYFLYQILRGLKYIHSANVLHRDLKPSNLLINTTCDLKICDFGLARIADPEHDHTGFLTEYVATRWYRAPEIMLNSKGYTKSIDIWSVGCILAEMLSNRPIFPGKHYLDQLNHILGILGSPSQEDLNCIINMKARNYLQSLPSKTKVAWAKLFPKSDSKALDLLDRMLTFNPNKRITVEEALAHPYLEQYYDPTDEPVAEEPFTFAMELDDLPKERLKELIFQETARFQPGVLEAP
# [5] = target: cAMP-dependent protein kinase type II-alpha regulatory subunit (Homo sapiens, UniProt P13861)
# Sequence of cAMP-dependent protein kinase type II-alpha regulatory subunit (P13861 whole entry): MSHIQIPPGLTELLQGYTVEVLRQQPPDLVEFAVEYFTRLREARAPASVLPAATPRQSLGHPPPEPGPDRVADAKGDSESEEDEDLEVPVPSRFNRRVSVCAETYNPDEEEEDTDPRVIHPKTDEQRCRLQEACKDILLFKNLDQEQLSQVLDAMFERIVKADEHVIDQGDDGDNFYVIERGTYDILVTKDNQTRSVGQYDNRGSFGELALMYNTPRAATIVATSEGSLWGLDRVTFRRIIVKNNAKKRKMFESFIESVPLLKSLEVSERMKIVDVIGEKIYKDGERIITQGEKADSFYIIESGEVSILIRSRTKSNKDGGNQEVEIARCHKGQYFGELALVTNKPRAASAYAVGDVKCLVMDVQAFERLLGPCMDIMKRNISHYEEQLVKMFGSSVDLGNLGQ
# [6] = target: T4, Thyroid hormone receptor-associated protein 3 (Homo sapiens, UniProt Q9Y2W1)
# T4 sequence (Q9Y2W1 whole entry): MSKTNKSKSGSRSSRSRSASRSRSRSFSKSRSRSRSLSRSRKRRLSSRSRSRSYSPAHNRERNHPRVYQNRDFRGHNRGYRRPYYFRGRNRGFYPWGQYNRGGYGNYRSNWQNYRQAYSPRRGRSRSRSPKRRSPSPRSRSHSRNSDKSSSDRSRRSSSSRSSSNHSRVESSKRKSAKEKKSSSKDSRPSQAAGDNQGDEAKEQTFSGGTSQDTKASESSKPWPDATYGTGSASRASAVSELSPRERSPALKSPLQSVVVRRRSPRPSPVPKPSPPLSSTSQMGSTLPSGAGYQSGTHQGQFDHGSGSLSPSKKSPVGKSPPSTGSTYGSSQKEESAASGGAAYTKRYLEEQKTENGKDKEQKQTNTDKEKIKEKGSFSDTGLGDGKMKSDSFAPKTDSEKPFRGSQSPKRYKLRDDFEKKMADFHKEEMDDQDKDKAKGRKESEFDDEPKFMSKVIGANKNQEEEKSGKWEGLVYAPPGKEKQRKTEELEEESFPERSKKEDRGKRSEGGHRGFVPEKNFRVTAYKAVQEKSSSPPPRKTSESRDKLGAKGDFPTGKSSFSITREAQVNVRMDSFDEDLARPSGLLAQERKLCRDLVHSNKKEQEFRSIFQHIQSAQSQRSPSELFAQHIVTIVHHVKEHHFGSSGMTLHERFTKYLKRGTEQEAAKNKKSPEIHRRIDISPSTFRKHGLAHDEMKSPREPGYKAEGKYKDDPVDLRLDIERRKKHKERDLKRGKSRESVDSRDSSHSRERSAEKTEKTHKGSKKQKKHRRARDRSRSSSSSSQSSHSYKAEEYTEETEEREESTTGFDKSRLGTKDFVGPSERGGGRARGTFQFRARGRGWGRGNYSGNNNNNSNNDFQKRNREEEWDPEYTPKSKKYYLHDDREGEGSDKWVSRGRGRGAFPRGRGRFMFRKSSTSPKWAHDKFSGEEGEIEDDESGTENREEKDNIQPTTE
# [7] = target: Interleukin-1 receptor-associated kinase 1 (Homo sapiens, UniProt P51617)
# Sequence of Interleukin-1 receptor-associated kinase 1 (P51617 whole entry): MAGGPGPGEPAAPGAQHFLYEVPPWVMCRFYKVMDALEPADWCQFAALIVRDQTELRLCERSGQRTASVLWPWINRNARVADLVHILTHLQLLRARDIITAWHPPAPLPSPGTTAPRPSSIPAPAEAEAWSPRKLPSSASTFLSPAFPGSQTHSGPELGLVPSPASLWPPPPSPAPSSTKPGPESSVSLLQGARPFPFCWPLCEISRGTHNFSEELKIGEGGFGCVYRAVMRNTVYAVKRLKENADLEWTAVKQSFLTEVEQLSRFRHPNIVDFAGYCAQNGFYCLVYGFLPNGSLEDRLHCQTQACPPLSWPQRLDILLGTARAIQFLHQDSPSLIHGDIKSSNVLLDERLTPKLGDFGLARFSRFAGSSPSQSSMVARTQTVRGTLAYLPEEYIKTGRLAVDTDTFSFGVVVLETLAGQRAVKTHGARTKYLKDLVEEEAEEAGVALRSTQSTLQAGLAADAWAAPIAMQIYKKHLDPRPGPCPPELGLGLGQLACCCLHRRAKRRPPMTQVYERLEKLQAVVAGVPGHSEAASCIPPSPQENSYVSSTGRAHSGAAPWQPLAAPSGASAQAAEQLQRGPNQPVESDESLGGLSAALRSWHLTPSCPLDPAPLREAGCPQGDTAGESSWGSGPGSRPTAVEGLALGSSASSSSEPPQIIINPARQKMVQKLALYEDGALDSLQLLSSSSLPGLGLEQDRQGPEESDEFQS
# [8] = target: Serine/threonine-protein kinase/endoribonuclease IRE2 (Homo sapiens, UniProt Q76MJ5)
# Sequence of Serine/threonine-protein kinase/endoribonuclease IRE2 (Q76MJ5 whole entry): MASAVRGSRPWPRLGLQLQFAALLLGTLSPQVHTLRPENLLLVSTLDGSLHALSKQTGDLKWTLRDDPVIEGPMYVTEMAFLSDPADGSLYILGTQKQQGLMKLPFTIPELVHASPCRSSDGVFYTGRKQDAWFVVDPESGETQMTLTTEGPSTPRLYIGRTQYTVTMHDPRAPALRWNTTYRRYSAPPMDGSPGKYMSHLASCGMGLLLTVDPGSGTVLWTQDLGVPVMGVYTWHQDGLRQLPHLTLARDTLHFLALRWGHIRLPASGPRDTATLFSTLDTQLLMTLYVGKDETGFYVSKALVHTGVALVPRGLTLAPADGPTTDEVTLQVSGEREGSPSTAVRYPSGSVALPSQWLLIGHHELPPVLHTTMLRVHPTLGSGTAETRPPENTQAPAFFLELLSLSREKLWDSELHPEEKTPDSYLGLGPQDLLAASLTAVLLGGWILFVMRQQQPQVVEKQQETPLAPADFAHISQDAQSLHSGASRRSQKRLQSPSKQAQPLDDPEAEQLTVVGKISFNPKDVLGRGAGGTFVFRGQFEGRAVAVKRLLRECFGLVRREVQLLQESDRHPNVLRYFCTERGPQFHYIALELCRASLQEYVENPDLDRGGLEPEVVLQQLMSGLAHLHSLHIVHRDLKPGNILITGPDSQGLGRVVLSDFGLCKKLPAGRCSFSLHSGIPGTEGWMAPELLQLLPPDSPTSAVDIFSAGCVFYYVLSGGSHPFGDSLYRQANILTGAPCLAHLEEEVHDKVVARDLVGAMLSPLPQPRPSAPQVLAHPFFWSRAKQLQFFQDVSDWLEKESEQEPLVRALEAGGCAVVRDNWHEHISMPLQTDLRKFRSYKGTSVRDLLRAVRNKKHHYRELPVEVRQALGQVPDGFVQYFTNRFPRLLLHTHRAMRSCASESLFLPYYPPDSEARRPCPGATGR
# Note: in the data inactive means no Kd found up to 30 µM.
Kd [1],Kd [2],Kd (Activin receptor type-1),Kd [3],Kd [4],Kd [5],Kd [6],Kd [7],Kd [8],Compound
> 30 µM (inactive),> 30 µM (inactive),> 30 µM (inactive),> 30 µM (inactive),> 30 µM (inactive),> 30 µM (inactive),> 30 µM (inactive),> 30 µM (inactive),> 30 µM (inactive),O=c1[nH]ccc2cc(OC3CCNCC3)ccc12 [SAR-407899 FREE BASE]
> 30 µM (inactive),> 30 µM (inactive),> 30 µM (inactive),> 30 µM (inactive),> 30 µM (inactive),> 30 µM (inactive),> 30 µM (inactive),> 30 µM (inactive),> 30 µM (inactive),Cn1cc(-c2cnn3c(N)c(Br)c([C@@H]4CCCNC4)nc23)cn1 [SCH-900776]
> 30 µM (inactive),> 30 µM (inactive),> 30 µM (inactive),> 30 µM (inactive),> 30 µM (inactive),> 30 µM (inactive),> 30 µM (inactive),> 30 µM (inactive),> 30 µM (inactive),CO[C@H]1C[C@@H]2CC[C@@H](C)[C@@](O)(O2)C(=O)C(=O)N2CCCC[C@H]2C(=O)O[C@H]([C@H](C)C[C@@H]2CC[C@@H](O)[C@H](OC)C2)CC(=O)[C@H](C)/C=C(\C)[C@@H](O)[C@@H](OC)C(=O)[C@H](C)C[C@H](C)/C=C/C=C/C=C/1C [SIROLIMUS]
> 30 µM (inactive),> 30 µM (inactive),> 30 µM (inactive),> 30 µM (inactive),> 30 µM (inactive),> 30 µM (inactive),> 30 µM (inactive),> 30 µM (inactive),> 30 µM (inactive),CO[C@H]1C[C@@H]2CC[C@@H](C)[C@@](O)(O2)C(=O)C(=O)N2CCCC[C@H]2C(=O)O[C@H]([C@H](C)C[C@@H]2CC[C@@H](OC(=O)C(C)(CO)CO)[C@H](OC)C2)CC(=O)[C@H](C)/C=C(\C)[C@@H](O)[C@@H](OC)C(=O)[C@H](C)C[C@H](C)/C=C/C=C/C=C/1C [TEMSIROLIMUS]
> 30 µM (inactive),> 30 µM (inactive),> 30 µM (inactive),> 30 µM (inactive),> 30 µM (inactive),> 30 µM (inactive),> 30 µM (inactive),> 30 µM (inactive),> 30 µM (inactive),COc1cc2c(Nc3ccc(Cl)c(Cl)c3F)ncnc2cc1OC[C@@H]1C[C@@H]2CN(C)C[C@@H]2C1 [TESEVATINIB]
> 30 µM (inactive),> 30 µM (inactive),> 30 µM (inactive),> 30 µM (inactive),> 30 µM (inactive),> 30 µM (inactive),> 30 µM (inactive),> 30 µM (inactive),> 30 µM (inactive),O=C(Cc1ccc(-c2ccc(OCCN3CCOCC3)cc2)cn1)NCc1ccccc1 [TIRBANIBULIN]
> 30 µM (inactive),> 30 µM (inactive),> 30 µM (inactive),> 30 µM (inactive),> 30 µM (inactive),> 30 µM (inactive),> 30 µM (inactive),> 30 µM (inactive),> 30 µM (inactive),O=C1NC(=O)[C@@H](c2cn3c4c(cccc24)CCC3)[C@@H]1c1c[nH]c2ccccc12 [TIVANTINIB]
> 30 µM (inactive),> 30 µM (inactive),> 30 µM (inactive),> 30 µM (inactive),> 30 µM (inactive),> 30 µM (inactive),> 30 µM (inactive),> 30 µM (inactive),> 30 µM (inactive),C[C@@H](NC(=O)c1ncnc(N)c1Cl)c1ncc(C(=O)Nc2cc(C(F)(F)F)c(Cl)cn2)s1 [TOVORAFENIB]
> 30 µM (inactive),3.08 µM,0.005 µM (active),0.118 µM (active),> 30 µM (inactive),> 30 µM (inactive),> 30 µM (inactive),> 30 µM (inactive),> 30 µM (inactive),CC(C)c1cc(CNc2nc(Nc3cc(C4CC4)[nH]n3)cc(N3CCN(C)CC3)n2)on1 [XL-228]
> 30 µM (inactive),> 30 µM (inactive),> 30 µM (inactive),> 30 µM (inactive),> 30 µM (inactive),> 30 µM (inactive),> 30 µM (inactive),> 30 µM (inactive),> 30 µM (inactive),CN1C/C=C/CCOc2cccc(c2)-c2ccnc(n2)Nc2cccc(c2)C1 [ZOTIRACICLIB]

Compound,Kd [1],Kd [2],Kd (Activin receptor type-1),Kd [3],Kd [4],Kd [5],Kd [6],Kd [7],Kd [8]
CN1CCN(CCOc2cc(OC3CCOCC3)c3c(Nc4c(Cl)ccc5c4OCO5)ncnc3c2)CC1 [SARACATINIB],> 30 µM (inactive),> 30 µM (inactive),0.004 µM (active),> 30 µM (inactive),> 30 µM (inactive),> 30 µM (inactive),> 30 µM (inactive),> 30 µM (inactive),> 30 µM (inactive)
Cc1cc(Nc2ncnc3ccc(NC4=NC(C)(C)CO4)cc23)ccc1Oc1ccn2ncnc2c1 [TUCATINIB],> 30 µM (inactive),> 30 µM (inactive),> 30 µM (inactive),> 30 µM (inactive),> 30 µM (inactive),> 30 µM (inactive),> 30 µM (inactive),> 30 µM (inactive),> 30 µM (inactive)
